Measured values published in patent US9510597B2, “Microbicidal composition” (Dow Global Technologies LLC, priority 2012, dated 2016).
Where a name gives a salt, the structure may show the parent alone.

Assays:
Type in all cases: cell-based
[1] = test system: Escherichia coli (ATCC #8739); assay: Minimum Inhibitory Concentration (MIC) synergy study, bacteria; details: for Minimum Inhibitory Concentration (ppm) MBIT: E. coli, MBIT alone (1:0) or MBIT portion of the mixture
Experimental: (§1) The synergism of the biocides combination of the present invention was determined using the method described by Kull, F. C, et. all in Applied Microbiology 9:538-541 (1961). […] In this invention, two different approaches of synergistic study were conducted. One synergistic study is determined based on the minimum inhibitory concentration (MIC), the lowest concentration of a biocide prevents the growth of tested microorganism under a specific set of conditions. The second study was based on three to four consecutive challenge testing. This test was conducted to take biocide mode of action and speed of kill into a consideration.
(§2) The microorganisms tested are Escherichia coli (E. coli, ATCC #8739), yeast, Candida albicans (c. albicans, ATCC #10231) and mold, Aspergillus niger (a. niger, ATCC #16404). The final concentration of microorganisms in the tested media is about 10^4 cfu/mL
(§3) MBIT synergy with a secondary biocide was determined by evaluating the minimum biocide or biocide blend concentration required to inhibit microbial growth. All studies were conducted using a 96 well microtiter plate format. For all studies, 200 μl of microbial growth media, containing various concentrations of MBIT alone, the secondary biocide alone, or combinations of both biocide chemistries, was added to individual wells of a microtiter plate. Specifically, Tryptic Soy Broth (TSB) was utilized for bacteria (E. coli, ATCC #8739), Yeast Malt Extract Broth (YMB) for yeast (Candida albicans, ATCC #10231) and Potato Dextrose Broth (PDB) for mold (Aspergillus niger, ATCC #16404). Test organisms, at a final concentration of 10^4 CFU/mL or 10^4 spores/mL, were applied to each well in parallel experiments to initiate the MIC evaluations. Growth medium containing no biocide was utilized as a control in each experimental setup to confirm the growth viability of each organism. Eight concentrations (2-fold dilutions) of each individual biocide were evaluated in the microbial growth inhibition studies in addition to the 64 possible combinations of these biocide concentrations. Evaluation of the individual biocide concentrations is required to achieve an inhibitory concentration end point for synergy index calculation. […] Individual wells were scored as growth or no growth based on visual organism growth turbidity.

[2] = test system: Aspergillus niger (ATCC #16404); assay: Minimum Inhibitory Concentration (MIC) synergy study, mold; details: for Minimum Inhibitory Concentration (ppm) MBIT: A. niger, MBIT alone (1:0) or MBIT portion of the mixture
Experimental: as §1, §2, §3

[3] = test system: Candida albicans (ATCC #10231); assay: Minimum Inhibitory Concentration (MIC) synergy study, yeast; details: for MIC: Candida albicans; for Minimum Inhibitory Concentration (ppm) MBIT: C. albicans, MBIT alone (1:0) or MBIT portion of the mixture
Experimental: as §1, §2, §3

[4] = test system: Candida albicans (ATCC #10231); assay: Minimum Kill Concentration (MKC) repeated challenge test, yeast
Experimental: as §1
(§4) MKC evaluations were utilized to determine the synergy of MBIT with the co-biocides DXN (6-Acetoxy-2,4-dimethyl-m-dioxane) and THNM (2-Hydroxymethyl-2-nitro-1,3-propanediol) due to the inability to evaluate these particular biocide chemistries in MIC evaluations. The following test methods were designed for the evaluation of the aforementioned synergistic combinations. The results can be found in Tables 7 and 8.
(§5) Testing began (day 0) by applying sterile water, supplemented with 2.0% yeast malt extract broth, to each well of a 96-well microtiter plate. […] After 48 hours of incubation at 30° C., yeast kill (to a maximum detection limit of 5×10^1 CFU/mL) was visually determined by the presence or lack of turbidity within the YMB.

[5] = test system: Escherichia coli (ATCC #8739); assay: Minimum Kill Concentration (MKC) repeated challenge test, bacteria; details: for Minimum Inhibitory Concentration (ppm) MBIT: MBIT alone (1:0) or MBIT portion of the mixture; for MIC: Escherichia coli
Experimental: as §1, §4
Testing began (day 0) by applying sterile water, supplemented with 2.0% TSB, to each well of a 96-well microtiter plate. Various concentrations of MBIT alone, the co-biocide alone, or combinations of both biocide chemistries, were added to individual wells of the microtiter plate followed by addition of Escherichia coli (ATCC #8739) at a final concentration of 5×10^4 CFU/mL. Equivalent inoculations were applied on days 7, 14 and 21 of the study. To determine the extent of bacterial kill, an aliquot (20 μl) of each sample was taken on days 1, 7, 8, 14, 15, 21, 22 and transferred to tryptic soy broth (180 μl). After 48 hours of incubation at 30° C., bacterial kill (to a maximum detection limit of 5×10^1 CFU/mL) was visually determined by the presence or lack of turbidity within the TSB.

[6] = test system: Aspergillus niger (ATCC #16404); assay: Minimum Kill Concentration (MKC) repeated challenge test, mold
Experimental: as §1, §4
as §5, with “potato dextrose” for “yeast malt extract”, “48-96” for “48”, “mold” for “yeast”, “spores/mL)” for “CFU/mL)”, “PDB.” for “YMB.”

Structure (SMILES): CCCCCCCCCCCCNC(=N)N [DDG, Dodecylguanidine hydrochloride]
- MIC ([1]; Escherichia coli, ATCC8739, read-out: Minimum Inhibitory Concentration (ppm) DDG): 875 µg/mL
- MIC ([2]; Aspergillus niger, ATCC16404, read-out: Minimum Inhibitory Concentration (ppm) DDG): 750 µg/mL
- MIC ([3]; ATCC10231, read-out: Minimum Inhibitory Concentration (ppm) DDG): 2000 µg/mL

Structure (SMILES): CCNc1nc(NC(C)(C)C)nc(SC)n1 [Terbutryn]
- MIC ([3]; ATCC10231, Table 5, C. albicans, Terbutryn alone (0:1) or Terbutryn portion of the mixture, read-out: Minimum Inhibitory Concentration (ppm) Terbutryn): > 20000 µg/mL

Structure (SMILES): [Na+].[O-]c1ccccc1-c1ccccc1 [NaOPP, sodium ortho-phenylphenate]
- Minimum Inhibitory Concentration (ppm) NaOPP ([2]; Table 4, A. niger, NaOPP alone (0:1) or NaOPP portion of the mixture): 200 ppm

Structure (SMILES): [Na+].[O-][n+]1ccccc1[S-] [NaPT, Sodium pyrithione]
- Minimum Inhibitory Concentration (ppm) NaPT ([1]; Table 3, E. coli, NaPT alone (0:1) or NaPT portion of the mixture): 2.5 ppm
- Minimum Inhibitory Concentration (ppm) NaPT ([2]; Table 3, A. niger, NaPT alone (0:1) or NaPT portion of the mixture): 25 ppm

Structure (SMILES): Cn1sc2ccccc2c1=O [MBIT, N-methyl-1,2-benzisothiazolin-3-one]
- Minimum Inhibitory Concentration (ppm) MBIT ([1]; Table 1, MBIT/DDG study): 62.5 ppm
- Minimum Inhibitory Concentration (ppm) MBIT ([1]; Table 2, MBIT/PHMB study): 12.5 ppm
- Minimum Inhibitory Concentration (ppm) MBIT ([1]; Table 3, MBIT/NaPT study): 25 ppm
- Minimum Inhibitory Concentration (ppm) MBIT ([4]; Table 7, MBIT/DXN study, kill of C. albicans at day 21, MBIT alone (1:0) or MBIT portion of the mixture): 6.25 ppm
- Minimum Inhibitory Concentration (ppm) MBIT ([5]; Table 7, MBIT/DXN study, kill of E. coli at day 7): 62.5 ppm
- Minimum Inhibitory Concentration (ppm) MBIT ([5]; Table 8, MBIT/THNM study, kill of E. coli at day 21): 125 ppm
- Minimum Inhibitory Concentration (ppm) MBIT ([2]; Table 1, MBIT/DDG study): 10 ppm
- Minimum Inhibitory Concentration (ppm) MBIT ([2]; Table 3, MBIT/NaPT study): 6.3 ppm
- Minimum Inhibitory Concentration (ppm) MBIT ([2]; Table 4, MBIT/NaOPP study): 6.3 ppm
- Minimum Inhibitory Concentration (ppm) MBIT ([6]; Table 7, MBIT/DXN study, kill of A. niger at Day 21, MBIT alone (1:0) or MBIT portion of the mixture): 10 ppm
- Minimum Inhibitory Concentration (ppm) MBIT ([3]; Table 1, MBIT/DDG study): 6.25 ppm
- Minimum Inhibitory Concentration (ppm) MBIT ([3]; Table 2, MBIT/PHMB study): 0.3125 ppm
- Minimum Inhibitory Concentration (ppm) MBIT ([3]; Table 5, MBIT/Terbutryn study): 3 ppm

Structure (SMILES): CC(=O)OC1CC(C)OC(C)O1 (stereo not drawn) [DXN, 6-Acetoxy-2,4-dimethyl-m-dioxane]
- MIC ([4]; Candida albicans, ATCC10231, 504 h, Table 7, kill of C. albicans at day 21, DXN alone (0:1) or DXN portion of the mixture, read-out: Minimum Inhibitory Concentration (ppm) DXN): 2000 µg/mL
- MIC ([5]; ATCC8739, 168 h, Table 7, kill of E. coli at day 7, DXN alone (0:1) or DXN portion of the mixture, read-out: Minimum Inhibitory Concentration (ppm) DXN): 875 µg/mL
- MIC ([6]; Aspergillus niger, ATCC16404, 504 h, Table 7, kill of A. niger at Day 21, DXN alone (0:1) or DXN portion of the mixture, read-out: Minimum Inhibitory Concentration (ppm) DXN): 750 µg/mL

Structure (SMILES): O=[N+]([O-])C(CO)(CO)CO [THNM, 2-Hydroxymethyl-2-nitro-1,3-propanediol]
- MIC ([5]; ATCC8739, 504 h, Table 8, kill of E. coli at day 21, THNM alone (0:1) or value printed for the mixture, read-out: Minimum Inhibitory Concentration (ppm) THMN): 125 µg/mL
